The text below walks through data of patent US4195101A, “2',6'-Dihydroxy-9-(2,5-dihydroxyphenyl)octylphenone and its use as an anti-oxidant” (The Lion Dentifrice Co. Ltd., priority 1977, dated 1980).

Each structure is given as a SMILES string.

For one data set, the system named is mouse. Particulars: comparison value for BHA; cited from earlier work.
Data set [1] in a line: Test I: peroxide value of refined lard by the active oxygen method (AOM). Particulars: 0.02% by weight in lard, 97.5° C. On the procedure:
(§1) The above-obtained compound was tested for its anti-oxidative effects in terms of peroxide value by the active oxygen method (AOM) and also in terms of oxygen absorption. […] Each of the tests I and II are described below together with the results thereof.
Varied amounts of the compound were admixed with and uniformly dissolved in portions of refined lard each weighing 20 g to prepare test samples. Each test sample was kept in an oil bath of thermostat at 97.5°±0.5° C., while air was forcedly blown into the lard at a rate of […].
The thus treated samples of the lard were analyzed for the peroxide value (POV for brevity) periodically or at certain intervals, in accordance with the modified Lea's method as described in "Yukagaku" (Journal of Japan Oil Chemist Society), vol. 19(15), p. 340, 1970.
In comparison, similar experiments were undertaken for the samples of the same lard with addition of BHA instead of the compound of the present invention or without addition of any anti-oxidant.

The nature of data set [2]: Test II: oxygen absorption in corn salad oil, Warburg's manometer. Particulars: 0.02% by weight in corn salad oil, 60° C. On the procedure: as §1
The compound of the present invention was determined for the rate of oxygen absorption in a corn salad oil to which 0.02% by weight of the compound had been added. For the purpose, 2 grams of the corn salad oil sample was taken in the receptacle of Warburg's manometer with thermostat at 60°±0.1° C., which was shaken with 110 vibrations per minute in a vibration amplitude of 60 mm. The rate of oxygen absorption was determined by reading the manometer according to the procedure set forth in "Jikken Kagaku Koza" (Lectures in Experimental Chemistry), vol. 24, p. 85, 1958, Maruzen Publishing, Japan. In this testing, the receptacle was totally wrapped with an aluminum foil to prevent the photooxidation of the oil, and mercury was used as the manometer fluid in place of Brodie's solution in order to minimize any possible influence caused by fluctuations in the atmospheric pressure.
Further, in comparison, a similar test was conducted using the same corn salad oil with addition of 0.02% by weight of BHA or without addition of any anti-oxidant.

As to `COc1ccc(O)c(C(C)(C)C)c1` [BHA, butylhydroxyanisole, reference compound], the LD50 value in the data set with mouse is listed as 1,100 mg/kg. Further, the Peroxide value is 2.8 meq./kg in data set [1] (8 hours); 5.1 meq./kg in data set [1] (16 hours); 7.9 meq./kg in data set [1] (24 hours); 13.8 meq./kg in data set [1] (32 hours); 28.9 meq./kg in data set [1] (40 hours); 33.1 meq./kg in data set [1] (48 hours). Also, the Peroxide value stood at 43.1 meq./kg in data set [1] (56 hours), 97.3 meq./kg in data set [1] (64 hours) and 296.7 meq./kg in data set [1] (72 hours). Further, the Oxygen absorption in data set [2] (85 hours) came to 57.6 μ1/g; in data set [2] (140 hours), 116.2 μ1/g; in data set [2] (166 hours) it was 174.8 μ1/g; in data set [2] (199 hours), 219.0 μ1/g; in data set [2] (263 hours) it was 478.9 μ1/g; in data set [2] (288 hours), 697.8 μ1/g. Besides, the Oxygen absorption in data set [2] (320 hours) turned out to be 922.9 μ1/g; in data set [2] (343 hours), 1124.2 μ1/g.
